Measured values published in US6303751A, “Human metabotropic glutamate receptor and related DNA compounds” (Eli Lilly and Company, priority 1995, dated 2001).

What was measured:
control AV12 cells = assay: PI hydrolysis in control AV12 cells (PI assay); assay type: cell-based; conditions: quisqualate 10 μM
Experimental: (§1) PI hydrolysis in clonal cell lines of AV12/pRS121 cells was measured in response to glutamate agonists as a functional assay for metabotropic glutamate receptor activity according to Schoepp, 11 TiPS 508 (1990).
(§2) Twenty-four-well tissue-culture vessels were seeded with approximately 250,000 cells per well in D-MEM (in the absence of glutamic acid) which contained […] and 10% dialyzed fetal calf serum. Four microcuries of ^3 H-myoinositol were then added to each well and the cultures were incubated for 48 hours at 37° C. The wells were then rinsed with serum-free medium which contained 10 mM LiCl and 10 mM myoinositol. Some wells were then exposed to medium with glutamate agonists for one hour at 37° C., and some wells were at the same time exposed to medium without glutamate agonists for one hour at 37° C.
(§3) The reactions were terminated by removing the media and adding 0.5 ml acetone-methanol (1:1). The cells were then incubated at 4° C. for 20 minutes. The acetone-methanol solutions were recovered from the wells and were placed into centrifuge tubes. […]
(§4) Labeled phosphoinositides were eluted from the cartridges with 4 ml of a solution which contained: 0.1 M ammonium formate; 0.1 M formic acid and 5 mM sodium tetraborate. […] Scintillation counting fluid (Ready Solv HP) was added to the vials and the radioactivity was determined in a Beckmann Scintillation Counter.

[1] = system: HSmGluR1 receptor (human metabotropic glutamate receptor) in AV12/pRS121 cells; assay: PI hydrolysis in AV12/pRS121 cells (PI assay); assay type: cell-based; conditions: 10 μM, one hour at 37° C.
Experimental: as §1, §2, §3, §4

## N[C@@H](Cn1oc(=O)[nH]c1=O)C(=O)O [quisqualate]
Control AV12 cells
  increase in PI hydrolysis over basal levels: No increase
[1]
  increase in PI hydrolysis over the basal level: 200 to 300%
